Laboratory results: patent US20260158149A1, “GLYCOSYLATED PRODRUGS” (UNIVERSITEIT LEIDEN, priority 2021, published 2026)

What was measured:
[1] = tested on: neutrophils migrated to the wounded area; assay: Tail fin amputation assay: neutrophil migration to the wounded area; type: in vivo, Zebrafish (Danio rerio)
[2] = tested on: regenerated tail fin; assay: Regeneration of the tail fin after wounding; type: in vivo, Zebrafish (Danio rerio); conditions: 5 dpf larvae, wounded at 2 dpf
Method: When the regeneration of the tail fins after wounding or the larval body length was used as a readout, chemical treatments of the embryos were started at 2 hours post fertilization (hpf) and continued until 5 dpf. During this period, solutions were refreshed daily. At 5 dpf, larvae were imaged using a LeicaMZ16FA fluorescence stereomicroscope supported by LAS 3.7 software, and the length of the larvae was measured using ImageJ software (15 larvae per treatment group). For the regeneration experiments, tail fins were amputated at 2 dpf and larvae were imaged at 5 dpf (15 larvae per treatment group). The newly grown tissue can be distinguished from the old tissue, enabling precise measurement of the size of the newly grown tissue using ImageJ software.

[3] = target: T1, human GR (Homo sapiens, UniProt P04150); assay: PolarScreen Glucocorticoid Receptor Competitor Assay
T1 sequence (P04150 1-777): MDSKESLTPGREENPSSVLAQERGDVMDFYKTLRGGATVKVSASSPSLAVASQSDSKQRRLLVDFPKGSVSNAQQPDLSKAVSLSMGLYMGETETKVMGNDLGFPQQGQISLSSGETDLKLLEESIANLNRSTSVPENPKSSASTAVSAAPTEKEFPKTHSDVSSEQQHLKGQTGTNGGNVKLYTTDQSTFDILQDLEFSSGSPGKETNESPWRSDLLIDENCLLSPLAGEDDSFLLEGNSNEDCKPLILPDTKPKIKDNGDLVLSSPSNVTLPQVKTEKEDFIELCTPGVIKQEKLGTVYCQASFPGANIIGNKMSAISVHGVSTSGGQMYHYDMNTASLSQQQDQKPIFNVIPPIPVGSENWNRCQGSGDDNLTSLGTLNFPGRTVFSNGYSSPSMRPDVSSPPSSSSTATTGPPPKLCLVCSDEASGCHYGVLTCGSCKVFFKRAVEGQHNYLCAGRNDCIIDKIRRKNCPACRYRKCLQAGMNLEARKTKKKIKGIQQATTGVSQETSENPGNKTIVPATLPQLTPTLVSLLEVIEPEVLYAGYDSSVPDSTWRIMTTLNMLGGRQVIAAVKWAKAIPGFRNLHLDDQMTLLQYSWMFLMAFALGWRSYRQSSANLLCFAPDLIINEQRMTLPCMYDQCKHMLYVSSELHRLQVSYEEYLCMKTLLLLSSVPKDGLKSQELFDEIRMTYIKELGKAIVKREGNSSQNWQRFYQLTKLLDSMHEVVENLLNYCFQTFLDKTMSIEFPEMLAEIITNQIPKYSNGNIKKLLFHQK

With `C[C@]12C=CC(=O)C=C1CC[C@@H]1[C@@H]2[C@@H](O)C[C@@]2(C)[C@H]1CC[C@]2(O)C(=O)CO[C@@H]1O[C@H](CO[C@@H]2O[C@H](CO)[C@@H](O)[C@H](O)[C@H]2O)[C@@H](O)[C@H](O)[C@H]1O` [GbPdn, 21-O-Gentobiose-Prednisolone] the “reduction in neutrophil migration in the presence of MZ31” value ([1]; GBA2 inhibitor MZ31) was “abolished by MZ31”, the “migration of neutrophils towards the wounded area” value ([1]; wild type larvae, 4 h after tail wounding) was “decrease in the migration of neutrophils” and the “tissue regeneration (length of regenerated tail fin)” value [2] was “small effect”. The “tissue regeneration with MZ31” value ([2]; GBA2 inhibitor MZ31) was “dependent on Gba2 activity” and the “decrease in the binding affinity relative to Pdn” value [3] was ~1400 fold.
